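Briefly, cells in 96-well plates were exposed to five compound concentrations for 48 h, and endpoints were estimated by linear interpolation. GI50 is the concentration that inhibits growth by half. TGI: concentration producing complete growth inhibition.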
How the values were obtained:
Assay in all cases: inhibition of tumour cell growth, NCI panel, 48 h
HL-60(TB) leukemia = system: HL-60(TB) leukemia
COLO 205 colon = system: COLO 205 colon
UACC-62 melanoma = system: UACC-62 melanoma
OVCAR-4 ovarian = system: OVCAR-4 ovarian
MOLT-4 leukemia = system: MOLT-4 leukemia
SK-OV-3 ovarian = system: SK-OV-3 ovarian
HCT-116 colon = system: HCT-116 colon
HT29 colon = system: HT29 colon
NCI-H226 lung = system: NCI-H226 lung
HOP-62 NSCLC = system: HOP-62 NSCLC
HCC-2998 colon = system: HCC-2998 colon
A549 NSCLC = system: A549 NSCLC
MALME-3M melanoma = system: MALME-3M melanoma
786-0 renal = system: 786-0 renal
SF-268 CNS = system: SF-268 CNS
RPMI-8226 leukemia = system: RPMI-8226 leukemia
KM12 colon = system: KM12 colon
RXF 393 renal = system: RXF 393 renal
SN12C renal = system: SN12C renal
LOX IMVI melanoma = system: LOX IMVI melanoma
HOP-92 NSCLC = system: HOP-92 NSCLC
SW-620 colon = system: SW-620 colon
BT-549 breast = system: BT-549 breast
SF-539 CNS = system: SF-539 CNS
SK-MEL-5 melanoma = system: SK-MEL-5 melanoma
K-562 leukemia = system: K-562 leukemia
HS 578T breast = system: HS 578T breast
U251 CNS = system: U251 CNS
NCI-H460 lung = system: NCI-H460 lung
DU-145 prostate = system: DU-145 prostate
IGROV1 ovarian = system: IGROV1 ovarian
A498 renal = system: A498 renal
NCI-H522 lung = system: NCI-H522 lung
OVCAR-8 ovarian = system: OVCAR-8 ovarian
SNB-75 CNS = system: SNB-75 CNS
EKVX NSCLC = system: EKVX NSCLC
SK-MEL-28 melanoma = system: SK-MEL-28 melanoma
MCF7 breast = system: MCF7 breast
SK-MEL-2 melanoma = system: SK-MEL-2 melanoma
UO-31 renal = system: UO-31 renal
NCI/ADR-RES ovarian = system: NCI/ADR-RES ovarian
SR leukemia = system: SR leukemia
SF-295 CNS = system: SF-295 CNS
T-47D breast = system: T-47D breast
SNB-19 CNS = system: SNB-19 CNS
MDA-MB-231 breast = system: MDA-MB-231 breast
PC-3 prostate = system: PC-3 prostate
OVCAR-5 ovarian = system: OVCAR-5 ovarian
TK-10 renal = system: TK-10 renal
MDA-MB-435 = system: MDA-MB-435
ACHN renal = system: ACHN renal
OVCAR-3 ovarian = system: OVCAR-3 ovarian
UACC-257 melanoma = system: UACC-257 melanoma
HCT-15 colon = system: HCT-15 colon
NCI-H23 lung = system: NCI-H23 lung
CAKI-1 renal = system: CAKI-1 renal

Work on `COc1cc(OC)cc(-c2cncn2-c2ccc(-c3nc4cc(OC)c(OC)c(OC)c4s3)cc2)c1` yielded a GI50 (HL-60(TB) leukemia) of 2.43 µM, a TGI (HL-60(TB) leukemia) of over 100 µM and a GI50 (COLO 205 colon) of 3.85 µM. For the same compound, the TGI (COLO 205 colon) was over 100 µM, the GI50 (UACC-62 melanoma) was 13.8 µM and the TGI (UACC-62 melanoma) was over 100 µM. For the same compound, the GI50 (OVCAR-4 ovarian) was 6.67 µM, the TGI (OVCAR-4 ovarian) was over 100 µM and the GI50 (MOLT-4 leukemia) was 4.1 µM. It also gave a TGI (MOLT-4 leukemia) of over 100 µM, a GI50 (SK-OV-3 ovarian) of 49.9 µM and a TGI (SK-OV-3 ovarian) of over 100 µM. For the same compound, the GI50 (HCT-116 colon) was 3.76 µM, the TGI (HCT-116 colon) was over 100 µM and the GI50 (HT29 colon) was 8.33 µM. It also gave a TGI (HT29 colon) of over 100 µM, a GI50 (NCI-H226 lung) of 21.7 µM and a TGI (NCI-H226 lung) of over 100 µM. For the same compound, the GI50 (HOP-62 NSCLC) was 26.4 µM, the TGI (HOP-62 NSCLC) was over 100 µM and the GI50 (HCC-2998 colon) was over 100 µM. The TGI (HCC-2998 colon) was over 100 µM, the GI50 (A549 NSCLC) was 5.59 µM and the TGI (A549 NSCLC) was over 100 µM. The GI50 (MALME-3M melanoma) was 9.59 µM, the TGI (MALME-3M melanoma) was 75.1 µM and the GI50 (786-0 renal) was 10.3 µM. It also gave a TGI (786-0 renal) of over 100 µM, a GI50 (SF-268 CNS) of 22.1 µM and a TGI (SF-268 CNS) of over 100 µM. It also gave a GI50 (RPMI-8226 leukemia) of 2.9 µM, a TGI (RPMI-8226 leukemia) of over 100 µM and a GI50 (KM12 colon) of 5.54 µM. For the same compound, the TGI (KM12 colon) was over 100 µM, the GI50 (RXF 393 renal) was 30.2 µM and the TGI (RXF 393 renal) was over 100 µM. The GI50 (SN12C renal) was 31.9 µM, the TGI (SN12C renal) was over 100 µM and the GI50 (LOX IMVI melanoma) was 6.93 µM. It also gave a TGI (LOX IMVI melanoma) of over 100 µM, a GI50 (HOP-92 NSCLC) of over 100 µM and a TGI (HOP-92 NSCLC) of over 100 µM. For the same compound, the GI50 (SW-620 colon) was 13.7 µM, the TGI (SW-620 colon) was over 100 µM and the GI50 (BT-549 breast) was 6.71 µM. The TGI (BT-549 breast) was over 100 µM, the GI50 (SF-539 CNS) was 22 µM and the TGI (SF-539 CNS) was over 100 µM. The GI50 (SK-MEL-5 melanoma) was 2.85 µM, the TGI (SK-MEL-5 melanoma) was over 100 µM and the GI50 (K-562 leukemia) was 3.57 µM. It also gave a TGI (K-562 leukemia) of over 100 µM, a GI50 (HS 578T breast) of 20.9 µM and a TGI (HS 578T breast) of over 100 µM. It also gave a GI50 (U251 CNS) of 5.44 µM, a TGI (U251 CNS) of over 100 µM and a GI50 (NCI-H460 lung) of 7.46 µM. It also gave a TGI (NCI-H460 lung) of over 100 µM, a GI50 (DU-145 prostate) of 31.1 µM and a TGI (DU-145 prostate) of over 100 µM. The GI50 (IGROV1 ovarian) was 9.6 µM, the TGI (IGROV1 ovarian) was over 100 µM and the GI50 (A498 renal) was over 100 µM. It also gave a TGI (A498 renal) of over 100 µM, a GI50 (NCI-H522 lung) of 11.8 µM and a TGI (NCI-H522 lung) of over 100 µM. It also gave a GI50 (OVCAR-8 ovarian) of 13.4 µM, a TGI (OVCAR-8 ovarian) of over 100 µM and a GI50 (SNB-75 CNS) of 15 µM. It also gave a TGI (SNB-75 CNS) of 42.7 µM, a GI50 (EKVX NSCLC) of 1.87 µM and a TGI (EKVX NSCLC) of over 100 µM. The GI50 (SK-MEL-28 melanoma) was 31.6 µM, the TGI (SK-MEL-28 melanoma) was over 100 µM and the GI50 (MCF7 breast) was 4.02 µM. It also gave a TGI (MCF7 breast) of over 100 µM, a GI50 (SK-MEL-2 melanoma) of 6.16 µM and a TGI (SK-MEL-2 melanoma) of over 100 µM. It also gave a GI50 (UO-31 renal) of 1.94 µM, a TGI (UO-31 renal) of 58.9 µM and a GI50 (NCI/ADR-RES ovarian) of 11 µM. It also gave a TGI (NCI/ADR-RES ovarian) of over 100 µM, a GI50 (SR leukemia) of 7.14 µM and a TGI (SR leukemia) of over 100 µM. For the same compound, the GI50 (SF-295 CNS) was 3.64 µM, the TGI (SF-295 CNS) was 52.9 µM and the GI50 (T-47D breast) was 4.74 µM. It also gave a TGI (T-47D breast) of over 100 µM, a GI50 (SNB-19 CNS) of 19.7 µM and a TGI (SNB-19 CNS) of over 100 µM. For the same compound, the GI50 (MDA-MB-231 breast) was 19.2 µM, the TGI (MDA-MB-231 breast) was over 100 µM and the GI50 (PC-3 prostate) was 3.17 µM. It also gave a TGI (PC-3 prostate) of over 100 µM, a GI50 (OVCAR-5 ovarian) of over 100 µM and a TGI (OVCAR-5 ovarian) of over 100 µM. The GI50 (TK-10 renal) was 26.4 µM, the TGI (TK-10 renal) was over 100 µM and the GI50 (MDA-MB-435) was 6.07 µM. The TGI (MDA-MB-435) was over 100 µM, the GI50 (ACHN renal) was 11.5 µM and the TGI (ACHN renal) was over 100 µM. The GI50 (OVCAR-3 ovarian) was 6.07 µM, the TGI (OVCAR-3 ovarian) was 26.7 µM and the GI50 (UACC-257 melanoma) was 20.5 µM. It also gave a TGI (UACC-257 melanoma) of over 100 µM, a GI50 (HCT-15 colon) of 5.72 µM and a TGI (HCT-15 colon) of over 100 µM. For the same compound, the GI50 (NCI-H23 lung) was 9.56 µM, the TGI (NCI-H23 lung) was over 100 µM and the GI50 (CAKI-1 renal) was 3.79 µM. For the same compound, the TGI (CAKI-1 renal) was over 100 µM.

— PubChem BioAssay (NCI)
